Each block holds one molecule with its values, some of them ahead of it.
Assay: Androgen antagonistic activity as inhibitory concentration against testosterone-induced SC-3 cell proliferation

IC50: 1900 nM
Compound: CCC(CC)(c1ccc(OCC(=O)C(C)(C)C)c(C)c1)c1ccc(OCC(=O)C(C)(C)C)c(C)c1 [LG190155]

IC50: 820 nM
Compound: CCC(CC)(c1ccc(NCCC(C)(C)O)c(C)c1)c1ccc(OCC(=O)C(C)(C)C)c(C)c1 [1-(4-{1-Ethyl-1-[4-(3-hydroxy-3-methyl-butylamino)-3-methyl-phenyl]-propyl}-2-methyl-phenoxy)-3,3-dimethyl-butan-2-one]

IC50: 1000 nM
Compound: CCC(CC)(c1ccc(NCC(O)C(C)(C)C)c(C)c1)c1ccc(NCC(O)C(C)(C)C)c(C)c1 (centres undefined)

IC50: 6800 nM
Compound: CCC(CC)(c1ccc(NCCC(C)(C)O)c(C)c1)c1ccc(NCCC(C)(C)O)c(C)c1 [4-(4-{1-Ethyl-1-[4-(3-hydroxy-3-methyl-butylamino)-3-methyl-phenyl]-propyl}-2-methyl-phenylamino)-2-methyl-butan-2-ol]

Continued, molecule first:

Compound: CCC(CC)(c1ccc(NCC(=O)C(C)(C)C)c(C)c1)c1ccc(OCC(=O)C(C)(C)C)c(C)c1
IC50: 1200 nM

Compound: CCC(CC)(c1ccc(OC[C@H](O)CO)c(C)c1)c1ccc(OC[C@H](O)C(C)(C)C)c(C)c1 [(R)-3-(4-(3-(4-((R)-2-hydroxy-3,3-dimethylbutoxy)-3-methylphenyl)pentan-3-yl)-2-methylphenoxy)propane-1,2-diol]
IC50: 19 nM

Compound: CCC(CC)(c1ccc(NCC(O)CO)c(C)c1)c1ccc(OCC(O)C(C)(C)C)c(C)c1 (centres undefined) [3-(4-{1-Ethyl-1-[4-(2-hydroxy-3,3-dimethyl-butoxy)-3-methyl-phenyl]-propyl}-2-methyl-phenylamino)-propane-1,2-diol]
IC50: 9 nM

Compound: CCC(CC)(c1ccc(O)c(C)c1)c1ccc(NCC(=O)C(C)(C)C)c(C)c1
IC50: 3500 nM

Compound: CCC(CC)(c1ccc(NCC(=O)C(C)(C)C)c(C)c1)c1ccc(NCC(=O)C(C)(C)C)c(C)c1
IC50: 1000 nM

From BindingDB's records for doi:10.1016/j.bmcl.2005.06.044 (The University of Tokyo, 2005)
